Experimental data from patent publication US20070142319A1, “Anxiolytic treatment by inhibition of a polysialyltransferase” (The Burnham Institute, priority 2004, published 2007).

Tests used:
[1] = test system: cell surface membrane resialylation; conditions: compounds that affect intracellular pools of CTP; cited from earlier work
CA3 mossy fiber synapses = experiment: Mossy fiber-CA3 extracellular recordings of fEPSPs in hippocampal slices; design: species or system mouse
Description: Hippocampal slices from five- to six-month-old ST8Sia-II-deficient mice and their wild-type littermates were used for recordings. After halothane anesthesia, decapitation and removal of the brain, the hippocampi were cut with a VT 1000M vibratome (Leica, Nussloch, Germany) in slices 300 μm thick in ice-cold artificial cerebrospinal fluid (ACSF) containing (in mM): 250 sucrose, 25 NaHCO3, 25 glucose, 2.5 KCl, 1.25 NaH2PO4, 2 CaCl2, and 1.5 MgCl2, pH 7.3. […]
The LTP-inducing high-frequency stimulation (HFS) consisted of one train of stimuli applied at 100 Hz during 1 sec once (“weak” stimulation protocol) or repeated four times with an interval of 20 sec (“strong” stimulation protocol). […] To additionally confirm that the fEPSPs recorded were evoked by the stimulation of mossy fibers and not by the associational/commissural pathway, an agonist of type II metabotropic glutamate receptors (L-CCG1, 10 μM; Tocris), which is known to reduce synaptic transmission in CA3 mossy fiber synapses (Manzoni, et al. Neuropharmacology (1995) 34:965-71), was applied at the end of each experiment. […] Basal synaptic transmission was monitored at 0.033 Hz. The mean amplitude of fEPSPs recorded 0-10 min before HFS was taken as 100%. Post-tetanic potentiation (PTP) was calculated as the maximal increase in the amplitude of fEPSP after HFS. […]

cultured neurons = conditions: acts as chain terminator after conversion to unnatural sialic acid derivative; cited from earlier work

Row | Structure (SMILES) | cell surface membrane resialylation [1] | other results
1 | O=C1C=CN([C@@H]2O[C@H](CO)[C@@H](O)[C@H]2O)C(=O)C1 [3-deazauridine] | curtail | 
2 | N[C@H](C(=O)O)[C@@H]1CC(Cl)=NO1 [acivicin] | curtail | 
3 | N[C@H](C(=O)O)[C@H]1C[C@@H]1C(=O)O [L-CCG1] |  | reduction of the amplitude of fEPSPs (CA3 mossy fiber synapses; L-CCG1 10 μM at end of experiment, similarly in both genotypes (wild-type and ST8Sia-II deficient)): 80%
4 | Nc1ccn([C@@H]2O[C@H](CO)[C@@H](O)[C@@H]2O)c(=O)n1 [1-beta-D-arabinofuranosylcytosine] | curtail | 
5 | NC(CCCP(=O)(O)O)C(=O)O (stereo not drawn) [AP-5] |  | effect on the amplitude of recorded fEPSPs (CA3 mossy fiber synapses; AP-5 50 μM, wild-type or ST8Sia-II deficient samples): did not affect the amplitude
6 | CCCC(=O)N[C@@H]1C(O)O[C@H](CO)[C@@H](O)[C@@H]1O (stereo partly drawn) [N-butanoylmannosiamine] |  | PSA expression on cultured neurons (cultured neurons): inhibit PSA expression
